Assay results from ChEMBL document CHEMBL6134848, “Deuteration Strategy-Inspired Design of Novel Diarylpyrimidine Derivatives as Potent Non-Nucleoside Reverse Transcriptase Inhibitors Featuring Improved Efficacy, Selectivity, and Druggability” (J Med Chem, 2025).

Key:
[1] = Cytotoxicity against human MT4 cells assessed as reduction in cell viability by MTT assay; assay type: toxicity, cell-based
[2] = tested on: Human immunodeficiency virus 1; assay: Potency index, ratio of EFV EC50 to test compound EC50 for antiviral activity against wild-type HIV-1 IIIB infected in human MT4 cells assessed as protection against virus-induced cytopathicity measured after 5 days post-infection by MTT assay; assay type: functional
[3] = tested on: Human immunodeficiency virus 1; assay: Antiviral activity against drug-resistant HIV-1 harboring RT K103N mutant infected in human MT4 cells assessed as protection against virus-induced cytopathicity measured after 5 days post-infection by MTT assay; assay type: functional, organism-based; settings: Human immunodeficiency virus 1, MT4, 120 h
[4] = tested on: Human immunodeficiency virus 1; assay: Antiviral activity against drug-resistant HIV-1 harboring RT Y188L mutant infected in human MT4 cells assessed as protection against virus-induced cytopathicity measured after 5 days post-infection by MTT assay; assay type: functional, organism-based; settings: Human immunodeficiency virus 1, MT4, 120 h
[5] = tested on: Human immunodeficiency virus 1; assay: Antiviral activity against drug-resistant HIV-1 harboring RT E138K mutant infected in human MT4 cells assessed as protection against virus-induced cytopathicity measured after 5 days post-infection by MTT assay; assay type: functional, organism-based; settings: Human immunodeficiency virus 1, MT4, 120 h
[6] = target: Human immunodeficiency virus type 1 reverse transcriptase (Human immunodeficiency virus 1, UniProt Q72547); assay: Inhibition of recombinant wild type HIV-1 reverse transcriptase incubated for 40 mins in presence of poly(rA) template/oligo(dT)16 primer by Pico-Green dye based analysis
[7] = target: T1, Voltage-gated inwardly rectifying potassium channel KCNH2 (Homo sapiens, UniProt Q12809); assay: Inhibition of hERG expressed in CHO cells by manual patch-clamp electrophysiology; assay type: toxicity, cell-based
[8] = target: T1, Voltage-gated inwardly rectifying potassium channel KCNH2; assay: Inhibition of hERG expressed in CHO cells assessed as fold increase by manual patch-clamp electrophysiology relative to RPV; assay type: toxicity, cell-based
Cytochrome P450 1A2 = target: T2, Cytochrome P450 1A2 (Homo sapiens, UniProt P05177); assay: Inhibition of CYP1A2 in human liver microsomes using phenacetin as substrate incubated for 15 to 45 mins by; assay type: ADME, Microsome
T2 sequence (P05177 whole entry): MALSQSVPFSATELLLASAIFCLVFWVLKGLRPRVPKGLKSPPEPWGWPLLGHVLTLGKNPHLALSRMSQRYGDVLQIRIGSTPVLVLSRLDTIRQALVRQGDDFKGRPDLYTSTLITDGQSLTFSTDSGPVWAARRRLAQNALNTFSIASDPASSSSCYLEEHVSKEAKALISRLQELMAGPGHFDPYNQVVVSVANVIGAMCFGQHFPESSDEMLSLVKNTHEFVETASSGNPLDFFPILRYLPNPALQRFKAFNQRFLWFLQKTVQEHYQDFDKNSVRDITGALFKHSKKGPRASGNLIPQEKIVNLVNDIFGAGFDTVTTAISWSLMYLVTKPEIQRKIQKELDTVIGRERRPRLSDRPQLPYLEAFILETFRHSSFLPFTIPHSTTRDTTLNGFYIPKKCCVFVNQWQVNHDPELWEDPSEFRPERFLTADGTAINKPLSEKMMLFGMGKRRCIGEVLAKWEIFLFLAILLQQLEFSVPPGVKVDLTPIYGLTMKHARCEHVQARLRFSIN

Cytochrome P450 2B6 = target: T3, Cytochrome P450 2B6 (Homo sapiens, UniProt P20813); assay: Inhibition of CYP2B6 in human liver microsomes using bupropion as substrate incubated for 15 to 45 mins by; assay type: ADME, Microsome
T3 sequence (P20813 whole entry): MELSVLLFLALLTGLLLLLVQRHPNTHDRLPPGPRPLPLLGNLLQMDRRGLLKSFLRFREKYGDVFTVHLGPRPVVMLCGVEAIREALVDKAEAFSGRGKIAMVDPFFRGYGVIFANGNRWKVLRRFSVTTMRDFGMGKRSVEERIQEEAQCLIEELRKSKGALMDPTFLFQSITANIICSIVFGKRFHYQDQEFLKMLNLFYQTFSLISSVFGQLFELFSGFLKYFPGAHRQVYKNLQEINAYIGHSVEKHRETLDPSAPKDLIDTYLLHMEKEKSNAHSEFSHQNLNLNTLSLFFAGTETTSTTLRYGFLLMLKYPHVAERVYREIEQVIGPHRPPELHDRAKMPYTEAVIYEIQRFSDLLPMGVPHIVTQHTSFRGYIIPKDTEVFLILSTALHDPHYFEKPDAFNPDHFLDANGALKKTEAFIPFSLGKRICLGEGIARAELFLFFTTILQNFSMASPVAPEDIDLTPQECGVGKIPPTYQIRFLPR

Cytochrome P450 2C19 = Cytochrome P450 2C19 (Homo sapiens, UniProt P33261); assay: Inhibition of CYP2C19 in human liver microsomes using S-mephenytoin as substrate incubated for 15 to 45 mins by; assay type: ADME, Microsome
Cytochrome P450 2D6 = Cytochrome P450 2D6 (Homo sapiens, UniProt P10635); assay: Inhibition of CYP2D6 in human liver microsomes using dextromethorphan as substrate incubated for 15 to 45 mins by; assay type: ADME, Microsome
[9] = Stability in human plasma assessed as compound remaining at 1 uM measured immediately by LC-MS/MS analysis; assay type: ADME, cell-free; settings: read-out: Stability
[10] = Stability in human plasma assessed as compound remaining at 1 uM measured after 3 hrs by LC-MS/MS analysis; assay type: ADME, cell-free; settings: read-out: Stability
[11] = Drug metabolism in human liver microsomes assessed as metabolic fraction at 1 uM measured up to 45 mins by LC/MS/MS analysis; assay type: ADME, Microsome; settings: microsomes, 0.75 h, 1 µM
[12] = Drug metabolism in rat liver microsomes assessed as metabolic fraction at 1 uM measured up to 45 mins by LC/MS/MS analysis; assay type: ADME, Microsome; settings: 0.75 h
[13] = Protein binding in human plasma assessed as drug recovery rate at 1 uM incubated for 6 hrs; assay type: ADME, cell-free; settings: read-out: Drug recovery
[14] = Cmax in Sprague-Dawley rat at 1 mg/kg, iv measured for 0.083 to 24 hrs by LC-MS/MS analysis; assay type: ADME, organism-based; settings: in vivo, time 0.083-24 hrs
[15] = AUC (0 to infinity) in Sprague-Dawley rat at 1 mg/kg, iv measured for 0.083 to 24 hrs by LC-MS/MS analysis; assay type: ADME, organism-based; settings: in vivo, time 0.083-24 hrs
[16] = Half life in Sprague-Dawley rat at 10 mg/kg, po measured for 0.083 to 24 hrs by LC-MS/MS analysis; assay type: ADME, organism-based; settings: in vivo, time 0.083-24 hrs
[17] = MRT (0 to t) in Sprague-Dawley rat at 10 mg/kg, po measured for 0.083 to 24 hrs by LC-MS/MS analysis; assay type: ADME, organism-based; settings: in vivo, time 0.083-24 hrs
[18] = Oral bioavailability in Sprague-Dawley rat at 10 mg/kg measured for 0.083 to 24 hrs by LC-MS/MS analysis; assay type: ADME, organism-based; settings: in vivo, time 0.083-24 hrs
[19] = Acute toxicity in ICR mouse assessed as animal mortality at 2000 mg/kg, IG measured for 14 days; assay type: organism-based; settings: in vivo, po, 336 h, time 14 day
[20] = Acute toxicity in ICR mouse assessed as pathological change in liver at 2000 mg/kg, IG measured for 14 days by H and E staining based analysis; assay type: organism-based; settings: in vivo, po, 336 h, time 14 day
[21] = Acute toxicity in ICR mouse assessed as pathological change in spleen at 2000 mg/kg, IG measured for 14 days by H and E staining based analysis; assay type: organism-based; settings: in vivo, po, 336 h, time 14 day
[22] = Acute toxicity in ICR mouse assessed as pathological change in brain at 2000 mg/kg, IG measured for 14 days by H and E staining based analysis; assay type: organism-based; settings: in vivo, po, 336 h, time 14 day
[23] = Acute toxicity in ICR mouse assessed as drug tolerance at 2000 mg/kg, IG measured for 14 days; assay type: organism-based; settings: in vivo, po, 336 h, time 14 day

T1 sequence (Q12809 whole entry): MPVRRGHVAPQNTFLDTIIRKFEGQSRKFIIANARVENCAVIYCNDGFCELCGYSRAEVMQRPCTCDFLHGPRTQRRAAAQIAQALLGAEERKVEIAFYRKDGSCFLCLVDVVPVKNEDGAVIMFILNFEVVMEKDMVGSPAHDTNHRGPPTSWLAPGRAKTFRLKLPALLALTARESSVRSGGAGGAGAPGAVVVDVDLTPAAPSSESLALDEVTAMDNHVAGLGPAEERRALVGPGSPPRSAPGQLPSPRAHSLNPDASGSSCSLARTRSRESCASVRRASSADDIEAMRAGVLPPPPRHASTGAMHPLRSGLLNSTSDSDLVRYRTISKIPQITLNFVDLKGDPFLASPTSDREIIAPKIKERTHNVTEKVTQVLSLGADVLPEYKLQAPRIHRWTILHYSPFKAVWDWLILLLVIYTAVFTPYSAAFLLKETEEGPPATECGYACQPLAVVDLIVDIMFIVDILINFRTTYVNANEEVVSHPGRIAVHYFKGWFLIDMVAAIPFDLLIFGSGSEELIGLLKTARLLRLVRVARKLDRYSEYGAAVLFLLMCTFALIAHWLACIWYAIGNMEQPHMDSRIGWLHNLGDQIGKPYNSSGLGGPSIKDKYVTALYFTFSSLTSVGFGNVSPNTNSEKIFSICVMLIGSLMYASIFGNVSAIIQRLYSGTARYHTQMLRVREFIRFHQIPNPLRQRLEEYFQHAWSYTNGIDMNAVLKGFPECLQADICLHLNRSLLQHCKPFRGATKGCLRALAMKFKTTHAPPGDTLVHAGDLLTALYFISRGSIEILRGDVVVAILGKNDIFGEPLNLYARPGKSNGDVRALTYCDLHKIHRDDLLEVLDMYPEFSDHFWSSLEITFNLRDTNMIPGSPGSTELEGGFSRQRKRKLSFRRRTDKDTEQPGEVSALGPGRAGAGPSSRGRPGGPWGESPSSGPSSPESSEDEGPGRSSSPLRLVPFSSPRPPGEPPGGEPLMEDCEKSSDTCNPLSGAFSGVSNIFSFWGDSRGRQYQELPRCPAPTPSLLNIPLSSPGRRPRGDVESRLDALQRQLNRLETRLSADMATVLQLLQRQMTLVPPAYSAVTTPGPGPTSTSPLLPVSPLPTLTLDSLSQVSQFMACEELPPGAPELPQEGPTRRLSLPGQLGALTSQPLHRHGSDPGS
Cytochrome P450 2C19, sequence (P33261 whole entry): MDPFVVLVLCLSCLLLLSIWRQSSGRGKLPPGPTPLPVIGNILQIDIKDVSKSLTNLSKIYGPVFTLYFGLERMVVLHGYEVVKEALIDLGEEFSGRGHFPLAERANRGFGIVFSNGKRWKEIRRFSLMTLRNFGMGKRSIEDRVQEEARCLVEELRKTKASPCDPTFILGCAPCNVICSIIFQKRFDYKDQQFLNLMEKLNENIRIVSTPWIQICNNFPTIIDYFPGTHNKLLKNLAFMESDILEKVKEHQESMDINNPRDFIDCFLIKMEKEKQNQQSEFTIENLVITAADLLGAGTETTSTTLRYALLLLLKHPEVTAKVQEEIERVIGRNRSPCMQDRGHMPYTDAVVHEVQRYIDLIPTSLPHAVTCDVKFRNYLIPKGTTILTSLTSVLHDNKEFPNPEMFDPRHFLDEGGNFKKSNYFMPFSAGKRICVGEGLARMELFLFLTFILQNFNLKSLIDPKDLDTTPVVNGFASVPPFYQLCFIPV
Cytochrome P450 2D6, sequence (P10635 whole entry): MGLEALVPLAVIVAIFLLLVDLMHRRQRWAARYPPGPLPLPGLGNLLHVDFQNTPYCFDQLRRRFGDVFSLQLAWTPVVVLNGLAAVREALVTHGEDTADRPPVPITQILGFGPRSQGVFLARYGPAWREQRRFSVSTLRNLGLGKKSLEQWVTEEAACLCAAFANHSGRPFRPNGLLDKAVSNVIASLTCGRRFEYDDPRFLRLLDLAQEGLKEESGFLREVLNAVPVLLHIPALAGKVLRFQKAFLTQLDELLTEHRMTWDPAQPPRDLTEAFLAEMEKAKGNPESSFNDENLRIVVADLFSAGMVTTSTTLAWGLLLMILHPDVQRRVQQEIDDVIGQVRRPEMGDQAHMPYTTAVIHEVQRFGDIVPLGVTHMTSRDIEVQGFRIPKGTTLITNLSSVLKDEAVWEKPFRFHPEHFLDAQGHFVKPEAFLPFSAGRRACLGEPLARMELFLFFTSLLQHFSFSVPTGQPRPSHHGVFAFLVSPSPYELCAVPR

Structure (SMILES): [2H]C([2H])([2H])c1cc(C#N)cc(C([2H])([2H])[2H])c1Oc1nc(NC2CCN(Cc3ccc(S(N)(=O)=O)cc3)CC2)nc2ccsc12
- CC50 [1]: > 225 µM
- Ratio EC50 [2]: 5
- EC50 [3]: 1.13 nM
- EC50 [4]: 5.18 nM
- EC50 [5]: 7.75 nM
- IC50 [6]: 190 nM
- IC50 [7]: 932 nM
- fold change (FC) [8]: 1.9
- IC50 (Cytochrome P450 1A2): > 10 µM
- IC50 (Cytochrome P450 2B6): > 10 µM
- IC50 (Cytochrome P450 2C19): > 10 µM
- IC50 (Cytochrome P450 2D6): > 10 µM
- remaining at 0 h, 1 µM [9]: 100%
- remaining at 3 h, 1 µM [10]: 92.2%
- Fm [11]: 14.8%
- Fm [12]: 28.9%
- recovery at 6 h, 1 µM [13]: 79.4%
- Cmax [14]: 1240 ng/mL
- AUC(0-inf) [15]: 729 ng·h/mL
- half-life [16]: 94.8 min
- MRT last [17]: 2.38 h
- bioavailability [18]: 29%
- Activity [19]: Non-toxic
- Activity [20]: Non-toxic
- Activity [21]: Non-toxic
- Activity [22]: Non-toxic
- Activity [23]: Non-toxic
